According to patent US20230165873A1, “Methods of Use for Single Molecule Compounds Providing Multi-Target Inhibition to Treat Covid 19” (priority 2020, published 2023):
Read-outs that look alike come from different tables or passages of the source.

How the values were obtained:
BRD4-1 = target: T1, BRD4-1 (Homo sapiens, UniProt O60885); test: BRD4-1 in vitro inhibition; assay type: binding
T1 construct: BRD4-1
Experimental: (§1) The kinase or bromodomain inhibitory activity of a compound of the invention can be determined by routine methods known to the skilled artisan without undue experimentation, or by procuring relevant analysis by a commercial vendor offering such services. […] In vivo, PI3K inhibition can be determined from target tissue biopsies by standard tissue processing in which cells are disrupted and Western Blot analysis is performed to determine the presence or absence of pAKT (substrate of PI3K) relative to a control sample. PI3K inhibition assays and BTK inhibition assays are known in the art and can be procured commercially through vendors such as Reaction Biology (Malvern, PA). The activity of a compound of the invention as an inhibitor of a bromodomain-containing protein, such as a BET protein, including BRD2, BRD3, BRD4, and/or BRDT, or an isoform or mutant thereof, may be determined in vitro, in vivo, or in a cell line. In vitro assays include assays that determine inhibition of bromodomain-containing proteins. Alternatively, inhibitor binding may be determined by running a competition experiment where a provided compound is incubated with a bromodomain-containing protein, such as a BET protein bound to known ligands, labeled or unlabeled. In vitro bromodomain inhibition assays can be performed using Alpha Screen Technology (Perkin Elmer Life and Analytical Sciences, Shelton, CT). In vivo bromodomain inhibition can be determined indirectly by evaluating the amount of a protein whose gene transcription is influenced or controlled by the bromodomain protein, for example, MYCN protein transcription is controlled by BRD4 (J.E. Delmore et al., Cell 2011, 146, 904-917; A. Puissant, Cancer Discov. 2013, 3, 308-323).

BRD4-2 = target: T2, BRD4-2 (Homo sapiens, UniProt O60885); test: BRD4-2 in vitro inhibition; assay type: binding
T2 construct: BRD4-2
Experimental: as §1

PI3K alpha = PI3K alpha (Homo sapiens, UniProt P42336); test: PI3K alpha in vitro inhibition; assay type: biochemical
Experimental: as §1

PI3K beta = PI3K beta (Homo sapiens, UniProt P42338); test: PI3K beta in vitro inhibition; assay type: biochemical
Experimental: as §1

PI3K gamma = PI3K gamma (Homo sapiens, UniProt P48736); test: PI3K gamma in vitro inhibition; assay type: biochemical
Experimental: as §1
(§2) IC50 inhibition data against the indicated targets were determined for compounds of the invention using standard in vitro assays (Tables 8 and 9).

BTK = BTK (Homo sapiens, UniProt Q06187); test: BTK in vitro inhibition; assay type: biochemical
Experimental: as §1, §2

BTK C481S = BTK C481S (Homo sapiens, UniProt Q06187, C481S); test: BTK C481S in vitro inhibition; assay type: biochemical
Experimental: as §1, §2

PI3K delta = PI3K delta (Homo sapiens, UniProt O00329); test: PI3K delta in vitro inhibition; assay type: biochemical
Experimental: as §1, §2

CDK4 cyclinD1 = CDK4 cyclinD1 (Homo sapiens, UniProt P11802); test: CDK4 cyclinD1 in vitro inhibition; assay type: biochemical
Experimental: as §1, §2

CDK6 cyclinD1 = CDK6 cyclinD1 (Homo sapiens, UniProt Q00534); test: CDK6 cyclinD1 in vitro inhibition; assay type: biochemical
Experimental: as §1, §2

Syk = Syk (Homo sapiens, UniProt P43405); test: Syk in vitro inhibition; assay type: biochemical
Experimental: as §1, §2

[1] = read-out: IC50 inhibition PI3K gamma

Chain of PI3K gamma (P48736 whole entry): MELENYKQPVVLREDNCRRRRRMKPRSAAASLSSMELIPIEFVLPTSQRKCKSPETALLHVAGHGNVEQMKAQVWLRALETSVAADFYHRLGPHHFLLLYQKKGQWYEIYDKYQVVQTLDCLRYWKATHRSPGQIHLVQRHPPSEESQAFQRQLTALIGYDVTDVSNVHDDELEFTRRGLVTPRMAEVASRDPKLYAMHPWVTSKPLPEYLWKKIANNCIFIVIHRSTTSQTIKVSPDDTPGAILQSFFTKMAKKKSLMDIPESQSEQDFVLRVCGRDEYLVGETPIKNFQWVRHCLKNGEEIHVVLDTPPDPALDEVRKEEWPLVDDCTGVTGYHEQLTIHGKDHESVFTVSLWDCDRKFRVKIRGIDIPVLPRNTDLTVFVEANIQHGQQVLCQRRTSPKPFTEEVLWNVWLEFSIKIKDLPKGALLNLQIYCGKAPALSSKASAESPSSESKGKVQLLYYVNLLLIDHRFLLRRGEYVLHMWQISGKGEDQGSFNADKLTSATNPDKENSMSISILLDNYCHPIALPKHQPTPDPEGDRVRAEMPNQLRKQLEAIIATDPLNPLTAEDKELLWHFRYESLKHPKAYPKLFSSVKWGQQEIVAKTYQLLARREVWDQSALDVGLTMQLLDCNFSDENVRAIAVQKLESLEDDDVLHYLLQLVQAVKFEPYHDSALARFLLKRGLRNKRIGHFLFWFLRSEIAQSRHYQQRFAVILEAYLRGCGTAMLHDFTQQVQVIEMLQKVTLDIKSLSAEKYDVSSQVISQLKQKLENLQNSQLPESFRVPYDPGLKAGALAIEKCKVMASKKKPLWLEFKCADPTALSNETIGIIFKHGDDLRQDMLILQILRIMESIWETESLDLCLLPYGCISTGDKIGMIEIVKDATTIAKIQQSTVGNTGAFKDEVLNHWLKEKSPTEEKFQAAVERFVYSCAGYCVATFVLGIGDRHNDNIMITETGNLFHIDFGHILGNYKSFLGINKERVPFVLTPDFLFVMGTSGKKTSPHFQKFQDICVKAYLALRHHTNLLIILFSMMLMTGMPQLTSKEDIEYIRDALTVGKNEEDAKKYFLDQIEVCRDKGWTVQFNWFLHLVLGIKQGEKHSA
Chain of PI3K delta (O00329 whole entry): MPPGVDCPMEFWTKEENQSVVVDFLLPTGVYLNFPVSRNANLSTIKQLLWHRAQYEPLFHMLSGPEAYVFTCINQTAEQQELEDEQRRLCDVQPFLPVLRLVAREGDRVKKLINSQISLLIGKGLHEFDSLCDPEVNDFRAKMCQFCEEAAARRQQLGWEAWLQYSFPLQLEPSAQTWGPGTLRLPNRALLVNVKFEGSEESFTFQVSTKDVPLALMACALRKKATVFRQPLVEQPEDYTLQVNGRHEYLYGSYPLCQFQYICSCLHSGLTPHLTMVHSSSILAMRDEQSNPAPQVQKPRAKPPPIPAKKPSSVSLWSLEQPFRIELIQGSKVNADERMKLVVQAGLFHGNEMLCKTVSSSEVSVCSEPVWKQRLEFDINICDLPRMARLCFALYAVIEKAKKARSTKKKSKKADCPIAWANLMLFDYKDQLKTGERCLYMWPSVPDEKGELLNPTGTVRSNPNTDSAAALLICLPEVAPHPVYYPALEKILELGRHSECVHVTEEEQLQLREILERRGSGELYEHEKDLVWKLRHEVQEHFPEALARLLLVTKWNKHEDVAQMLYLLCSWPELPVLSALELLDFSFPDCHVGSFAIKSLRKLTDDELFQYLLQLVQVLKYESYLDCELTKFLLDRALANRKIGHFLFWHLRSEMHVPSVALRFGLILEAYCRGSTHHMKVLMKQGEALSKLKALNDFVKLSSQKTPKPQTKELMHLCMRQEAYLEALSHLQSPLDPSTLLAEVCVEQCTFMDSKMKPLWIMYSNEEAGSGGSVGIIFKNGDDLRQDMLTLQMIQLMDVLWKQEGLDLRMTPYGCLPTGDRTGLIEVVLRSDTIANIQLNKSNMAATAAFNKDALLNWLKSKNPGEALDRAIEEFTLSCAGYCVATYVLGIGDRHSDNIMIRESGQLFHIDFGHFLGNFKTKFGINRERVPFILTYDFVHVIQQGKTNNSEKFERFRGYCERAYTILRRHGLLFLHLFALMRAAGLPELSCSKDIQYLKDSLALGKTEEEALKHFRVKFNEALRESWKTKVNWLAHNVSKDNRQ
Chain of PI3K delta (P27986 whole entry partner): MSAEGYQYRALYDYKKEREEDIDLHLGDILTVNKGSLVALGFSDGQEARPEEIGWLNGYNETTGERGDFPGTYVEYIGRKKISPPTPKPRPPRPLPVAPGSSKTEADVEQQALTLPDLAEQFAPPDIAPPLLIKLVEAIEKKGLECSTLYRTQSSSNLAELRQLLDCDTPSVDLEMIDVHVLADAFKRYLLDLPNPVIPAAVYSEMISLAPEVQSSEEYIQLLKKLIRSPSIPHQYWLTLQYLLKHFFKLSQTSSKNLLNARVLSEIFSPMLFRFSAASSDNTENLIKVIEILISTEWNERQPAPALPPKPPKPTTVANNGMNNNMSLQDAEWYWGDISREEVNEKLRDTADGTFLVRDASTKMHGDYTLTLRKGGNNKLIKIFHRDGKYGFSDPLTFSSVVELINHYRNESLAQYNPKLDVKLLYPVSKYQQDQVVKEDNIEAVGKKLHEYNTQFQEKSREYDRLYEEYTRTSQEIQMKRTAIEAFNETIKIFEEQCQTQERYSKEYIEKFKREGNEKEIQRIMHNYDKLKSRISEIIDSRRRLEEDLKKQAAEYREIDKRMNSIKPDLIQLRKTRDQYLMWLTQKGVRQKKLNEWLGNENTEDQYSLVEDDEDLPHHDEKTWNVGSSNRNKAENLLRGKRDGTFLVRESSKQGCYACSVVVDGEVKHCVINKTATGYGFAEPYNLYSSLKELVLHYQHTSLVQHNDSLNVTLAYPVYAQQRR
Chain of CDK4 cyclinD1 (P11802 whole entry): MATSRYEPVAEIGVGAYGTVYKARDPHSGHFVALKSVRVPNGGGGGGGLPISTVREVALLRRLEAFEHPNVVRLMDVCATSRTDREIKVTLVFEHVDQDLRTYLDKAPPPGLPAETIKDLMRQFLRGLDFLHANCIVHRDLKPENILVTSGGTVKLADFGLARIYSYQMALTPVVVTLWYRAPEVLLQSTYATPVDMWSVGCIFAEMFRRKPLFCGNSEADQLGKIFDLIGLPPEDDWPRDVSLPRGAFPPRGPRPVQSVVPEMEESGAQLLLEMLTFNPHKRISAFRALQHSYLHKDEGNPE
Chain of CDK4 cyclinD1 (P24385 whole entry partner): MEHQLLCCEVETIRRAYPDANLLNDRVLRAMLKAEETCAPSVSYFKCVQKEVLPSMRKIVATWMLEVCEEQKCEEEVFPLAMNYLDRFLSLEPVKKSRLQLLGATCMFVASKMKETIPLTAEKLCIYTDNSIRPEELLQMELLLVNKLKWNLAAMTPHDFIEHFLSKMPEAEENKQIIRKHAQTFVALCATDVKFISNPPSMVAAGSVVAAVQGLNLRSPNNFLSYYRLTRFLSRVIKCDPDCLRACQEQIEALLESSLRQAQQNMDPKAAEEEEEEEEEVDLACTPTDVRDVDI
Chain of PI3K alpha (P42336 whole entry): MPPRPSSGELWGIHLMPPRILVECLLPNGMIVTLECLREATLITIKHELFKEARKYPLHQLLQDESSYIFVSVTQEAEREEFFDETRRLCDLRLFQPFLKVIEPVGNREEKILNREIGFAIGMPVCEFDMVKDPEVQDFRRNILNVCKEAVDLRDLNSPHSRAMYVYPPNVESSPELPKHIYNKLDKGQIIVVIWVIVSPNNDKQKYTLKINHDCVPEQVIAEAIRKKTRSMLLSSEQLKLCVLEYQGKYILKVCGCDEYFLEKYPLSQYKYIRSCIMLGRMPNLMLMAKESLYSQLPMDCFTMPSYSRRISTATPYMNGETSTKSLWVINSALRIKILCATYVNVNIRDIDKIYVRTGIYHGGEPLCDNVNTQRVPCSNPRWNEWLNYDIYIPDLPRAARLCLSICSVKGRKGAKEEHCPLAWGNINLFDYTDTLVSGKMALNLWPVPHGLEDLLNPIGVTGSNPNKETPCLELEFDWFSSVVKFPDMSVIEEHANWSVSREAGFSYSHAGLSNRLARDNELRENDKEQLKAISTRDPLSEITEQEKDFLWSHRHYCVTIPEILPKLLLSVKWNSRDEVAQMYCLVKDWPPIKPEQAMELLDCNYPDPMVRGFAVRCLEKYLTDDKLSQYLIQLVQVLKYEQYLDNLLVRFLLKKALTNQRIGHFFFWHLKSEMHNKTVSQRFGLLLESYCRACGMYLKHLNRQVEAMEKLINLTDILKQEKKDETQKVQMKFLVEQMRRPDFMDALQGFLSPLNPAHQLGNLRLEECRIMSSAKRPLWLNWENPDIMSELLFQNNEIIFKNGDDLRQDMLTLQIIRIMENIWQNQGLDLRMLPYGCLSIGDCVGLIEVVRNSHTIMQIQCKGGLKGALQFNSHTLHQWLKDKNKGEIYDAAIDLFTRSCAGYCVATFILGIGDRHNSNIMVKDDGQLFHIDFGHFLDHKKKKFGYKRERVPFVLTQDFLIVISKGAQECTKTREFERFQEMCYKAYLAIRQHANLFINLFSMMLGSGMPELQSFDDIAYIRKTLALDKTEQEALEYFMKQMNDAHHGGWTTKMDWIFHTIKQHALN
Chain of PI3K alpha (P27986 whole entry partner): as the sequence (P27986 whole entry partner) above
Chain of CDK6 cyclinD1 (Q00534 whole entry): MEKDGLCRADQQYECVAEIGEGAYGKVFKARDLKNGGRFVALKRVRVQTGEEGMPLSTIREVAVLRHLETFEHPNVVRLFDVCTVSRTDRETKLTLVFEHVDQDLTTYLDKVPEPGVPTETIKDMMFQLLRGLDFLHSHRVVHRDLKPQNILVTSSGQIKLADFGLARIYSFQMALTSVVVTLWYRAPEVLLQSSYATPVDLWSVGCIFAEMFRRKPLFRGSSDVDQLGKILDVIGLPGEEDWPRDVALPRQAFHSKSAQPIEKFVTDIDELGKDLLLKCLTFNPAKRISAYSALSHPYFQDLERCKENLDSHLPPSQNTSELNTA
Chain of CDK6 cyclinD1 (P24385 whole entry partner): as the sequence (P24385 whole entry partner) above

Structure (SMILES) | IC50 (BRD4-1) [nM] | IC50 (BRD4-2) [nM] | IC50 (PI3K alpha) [nM] | IC50 (PI3K beta) [nM] | IC50 (PI3K gamma; [1]) [nM] | IC50 (BTK) [nM] | IC50 (BTK C481S) [µM] | IC50 (PI3K delta) [nM] | IC50 (CDK4 cyclinD1) [nM] | IC50 (CDK6 cyclinD1) [nM] | IC50 (Syk) [nM] | IC50 (PI3K gamma; IC50 inhibition PI3K gamma) [nM]
C=CC(=O)Nc1ccc(-c2csc3c(=O)cc(N4CCOCC4)oc23)cc1 [Compound 30] | 1000 to 10000 | < 500 | < 500 | < 500 | 500 to 1000 | 10000 to 45000 | > 45 | – | – | – | – | –
O=c1cc(N2CCOCC2)oc2c(C#Cc3ccccc3)csc12 [Compound 5-4] | 1000 to 10000 | 10000 to 45000 | < 500 | – | < 500 | – | – | < 500 | – | – | – | –
COc1cc(NC(C)=O)cc(-c2csc3c(=O)cc(N4CCOCC4)oc23)c1 [Compound 33] | < 500 | 1000 to 10000 | < 500 | < 500 | < 500 | 500 to 1000 | > 45 | – | – | – | – | –
C/C=C/C(=O)N1CCOc2ccc(-c3csc4c(=O)cc(N5CCOCC5)oc34)cc21 [Compound 39] | < 500 | < 500 | < 500 | < 500 | 1000 to 10000 | 10000 to 45000 | > 45 | – | – | – | – | –
COc1cc(C#Cc2csc3c(=O)cc(N4CCOCC4)oc23)cc(OC)c1 [Compound 5-3] | < 500 | 500 to 1000 | 500 to 1000 | – | 1000 to 10000 | – | – | < 500 | – | – | – | –
Cc1nn(-c2ccnc(Nc3ccc(-c4csc5c(=O)cc(N6CCOCC6)oc45)cc3)n2)cc1CN1CCOCC1 [Compound 58] | 1000 to 10000 | 1000 to 10000 | 500 to 1000 | – | 10000 to 45000 | – | – | < 500 | > 45000 | > 45000 | > 45000 | –
C=CS(=O)(=O)N(c1cc(-c2csc3c(=O)cc(N4CCOCC4)oc23)ccc1OC)S(=O)(=O)C=C [Compound 49] | < 500 | 1000 to 10000 | < 500 | < 500 | < 500 | < 500 | 10 to 45 | – | – | – | – | –
C/C=C(\C)C(=O)N1CCOc2ccc(-c3csc4c(=O)cc(N5CCOCC5)oc34)cc21 [Compound 38] | < 500 | 500 to 1000 | < 500 | < 500 | 1000 to 10000 | > 45000 | > 45 | – | – | – | – | –
COc1ccc(C#Cc2csc3c(=O)cc(N4CCOCC4)oc23)cc1 [Compound 5-2] | 500 to 1000 | 1000 to 10000 | < 500 | – | – | – | – | < 500 | – | – | – | 500 to 1000
Cc1nn(-c2ccnc(Nc3ccc(-c4csc5c(=O)cc(N6CCOCC6)oc45)cc3)n2)cc1CN1CCC1 [Compound 54] | 1000 to 10000 | 1000 to 10000 | < 500 | – | 1000 to 10000 | – | – | < 500 | > 45000 | > 45000 | < 500 | –
C/C=C(/C)C(=O)N1CCOc2ccc(-c3csc4c(=O)cc(N5CCOCC5)oc34)cc21 [Compound 37] | 500 to 1000 | 500 to 1000 | < 500 | < 500 | 500 to 1000 | 10000 to 45000 | > 45 | – | – | – | – | –
O=C(C1=CCCC1)N1CCOc2ccc(-c3csc4c(=O)cc(N5CCOCC5)oc34)cc21 [Compound 40] | < 500 | < 500 | < 500 | < 500 | 1000 to 10000 | > 45000 | 10 to 45 | – | – | – | – | –
CC(C)(C)OC(=O)Nc1cc2cnc(Nc3ccc(-c4csc5c(=O)cc(N6CCOCC6)oc45)cc3)nc2n1C1CCCC1 [Compound 25-3] | < 500 | 500 to 1000 | < 500 | – | 1000 to 10000 | – | – | < 500 | < 500 | < 500 | – | –
C=CC(=O)N1CCOc2ccc(-c3csc4c(=O)cc(N5CCOCC5)oc34)cc21 [Compound 32] | < 500 | < 500 | < 500 | < 500 | < 500 | < 500 | 10 to 45 | – | – | – | – | –
O=c1cc(N2CCOCC2)oc2c(C#Cc3ccsc3)csc12 [Compound 5-1] | 10000 to 45000 | 10000 to 45000 | < 500 | – | < 500 | – | – | < 500 | – | – | – | –
C=CS(=O)(=O)Nc1cc(-c2csc3c(=O)cc(N4CCOCC4)oc23)ccc1OC [Compound 45] | < 500 | < 500 | < 500 | < 500 | < 500 | < 500 | > 45 | – | – | – | – | –
C=CS(=O)(=O)N(C)c1cc(-c2csc3c(=O)cc(N4CCOCC4)oc23)ccc1OC [Compound 48] | < 500 | < 500 | < 500 | < 500 | < 500 | < 500 | > 45 | – | – | – | – | –
C=CS(=O)(=O)N(c1cccc(-c2csc3c(=O)cc(N4CCOCC4)oc23)c1)S(=O)(=O)C=C [Compound 50] | < 500 | < 500 | < 500 | < 500 | < 500 | < 500 | 10 to 45 | – | – | – | – | –
Cc1nn(-c2ccnc(Nc3ccc(-c4csc5c(=O)cc(N6CCN(C(=O)OC(C)(C)C)CC6)oc45)cc3)n2)cc1CN1CC(O)C1 [Compound 56] | 1000 to 10000 | > 45000 | 1000 to 10000 | – | 10000 to 45000 | – | – | 1000 to 10000 | 1000 to 10000 | 500 to 1000 | < 500 | –
Cc1nn(-c2ccnc(Nc3ccc(-c4csc5c(=O)cc(N6CCNCC6)oc45)cc3)n2)cc1CN1CCC1 [Compound 55] | 1000 to 10000 | > 45000 | > 45000 | – | > 45000 | – | – | 1000 to 10000 | 1000 to 10000 | < 500 | < 500 | –
C=CS(=O)(=O)N1CCCc2ccc(-c3csc4c(=O)cc(N5CCOCC5)oc34)cc21 [Compound 44] | < 500 | < 500 | < 500 | < 500 | < 500 | < 500 | 10 to 45 | – | – | – | – | –
C=CC(=O)Nc1cc(-c2csc3c(=O)cc(N4CCOCC4)oc23)ccc1OC [Compound 36] | < 500 | 500 to 1000 | < 500 | < 500 | 1000 to 10000 | 1000 to 10000 | 1 to 10 | – | – | – | – | –
C=CS(=O)(=O)N(C)c1cccc(-c2csc3c(=O)cc(N4CCOCC4)oc23)c1 [Compound 47] | < 500 | 500 to 1000 | < 500 | < 500 | < 500 | < 500 | > 45 | – | – | – | – | –
Cc1nc2c(F)cc(-c3nc(Nc4ccc(-c5csc6c(=O)cc(N7CCOCC7)oc56)cc4)ncc3F)cc2n1C(C)C [Compound 25-1] | > 45000 | > 45000 | 10000 to 45000 | – | > 45000 | – | – | 1000 to 10000 | < 500 | < 500 | – | –
C=CC(=O)Nc1cccc(-c2csc3c(=O)cc(N4CCOCC4)oc23)c1 [Compound 31] | 500 to 1000 | 1000 to 10000 | < 500 | < 500 | 1000 to 10000 | 500 to 1000 | > 45 | – | – | – | – | –
CC(=O)c1c(C)c2cnc(Nc3ccc(-c4csc5c(=O)cc(N6CCOCC6)oc45)cc3)nc2n(C2CCCC2)c1=O [Compound 25-2] | < 500 | < 500 | < 500 | – | 1000 to 10000 | – | – | < 500 | < 500 | < 500 | – | –
C=CS(=O)(=O)Nc1cccc(-c2csc3c(=O)cc(N4CCOCC4)oc23)c1 [Compound 46] | < 500 | < 500 | < 500 | < 500 | < 500 | < 500 | > 45 | – | – | – | – | –
C=CS(=O)(=O)N(CCS(=O)(=O)N(c1cc(-c2csc3c(=O)cc(N4CCOCC4)oc23)ccc1OC)S(=O)(=O)C=C)c1cc(-c2csc3c(=O)cc(N4CCOCC4)oc23)ccc1OC [Compound 51] | 1000 to 10000 | < 500 | < 500 | < 500 | 500 to 1000 | 1000 to 10000 | 10 to 45 | – | – | – | – | –
